Patent publication EP0311107A2, “Anti-HIV active 3'-fluoro-purine-2',3'-dideoxyribosides” (priority 1987, dated 1989)
Like-named read-outs stand apart in the source and are kept apart here. Marks after values point to notes of the source that are not given here.

What was measured:
[1] = target: T1, beef intestine adenosine deaminase (ADA) (Bos taurus, UniProt P56658); settings: data taken from Balzarini, J. et al (1987c); cited from earlier work
T1 construct: Kinetic properties of beef intestine adenosine deaminase for 2,6-diaminopurine 2′,3′-dideoxynucleoside analogues; purchased Boehringer Mannheim, Mannheim, West Germany; host or cells: beef intestine (tissue-derived enzyme)
T1 sequence (P56658 1-363): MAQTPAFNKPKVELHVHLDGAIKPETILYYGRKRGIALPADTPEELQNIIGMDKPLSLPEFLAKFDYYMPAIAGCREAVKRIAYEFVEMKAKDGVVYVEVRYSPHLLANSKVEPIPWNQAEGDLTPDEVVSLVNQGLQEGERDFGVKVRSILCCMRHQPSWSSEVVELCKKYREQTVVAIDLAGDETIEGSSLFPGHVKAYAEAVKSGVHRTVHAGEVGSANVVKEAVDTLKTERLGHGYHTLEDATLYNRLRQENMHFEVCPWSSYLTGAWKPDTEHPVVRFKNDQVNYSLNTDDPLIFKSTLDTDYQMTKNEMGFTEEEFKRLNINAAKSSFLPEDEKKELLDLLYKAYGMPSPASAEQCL

[2] = system: HIV (HTLV-IIIB); settings: earlier report, Balzarini et al (1987b); read-out: 50% effective dose (ED₅₀), inhibition of HIV-replication in MT4 cells; cited from earlier work
[3] = system: B-lymphoblast Raji; assay: Cytostatic effect against Raji cells; format: cell-based; settings: Homo sapiens, read-out: Inhibitory dose-50 Raji
Protocol: (§1) The cultivation of Raji, Molt/4F, CEM, H9, HUT-78 and MT4 cells has been described in Balzarini, J, et al, Biochem. Biophys. Res. Commun. 136:64-71 (1986b) and Pauwels, R. et al, J. Virol. Methods, 16:171-185 (1987).
(§2) The cytostatic effects of the compounds listed in Table 1 were examined against several human B-lymphoblast Raji, T-lymphoblast Molt/4F and T-lymphocyte CEM, H9 and MT4 cell lines (Table 2). […] In no case is the ID₅₀ of the compounds for tumor cell proliferation lower than 60 µM. FddGuo is slightly more cytostatic than FddDAPR (ID₅₀ : 190 to 228 µM, and 233 to >1000 µM, respectively). XylodDAPR and araDAPR are devoid of any anti-cellular activity, even when tested at a concentration as high as 1000 µM.

[4] = system: T-lymphocyte CEM; assay: Cytostatic effect against CEM cells; format: cell-based; settings: Homo sapiens, read-out: Inhibitory dose-50 CEM
[5] = system: MT4; assay: Cytostatic effect against MT4 cells; format: cell-based; settings: Homo sapiens, read-out: Inhibitory dose-50 MT4
Protocol: as §1, §2

[6] = system: T-lymphocyte CEM; assay: Cytostatic effect against CEM cells; format: cell-based; settings: Homo sapiens, CCRF-CEM, read-out: Inhibitory dose-50 CEM
Protocol: as §1, §2

[7] = in vitro; format: cell-based; settings: mouse, c3h cells
[8] = system: Moloney murine sarcoma virus (MSV); assay: MSV-induced C3H cell transformation; format: cell-based; settings: for EC50: Moloney murine sarcoma virus, C3H; for MSV-induced C3H cell transformation S.I.: selectivity index, ratio of 50% cytotoxic dose to 50% antivirally effective dose
Protocol: For transformation of C3H mouse embryo cells by Molo ney murine sarcoma virus (MSV), confluent monolayers of C3H cells in 1 ml wells of Tissue Culture Cluster plates were infected wiht 150 foci-forming units of MSV during 90 min, whereafter medium was replaced by 1 ml fresh culture medium containing different concentrations of test compound. After 6-7 days incubation at 37°C, transformation of the cell cultures was monitored microscopically.
(§3) A series of novel 2,6-diaminopurine and guanine 2′,3′-dideoxynucleoside analogues in which the 2′,3′-dideoxyribose moiety is substituted by a 3′-fluoro group, or replaced by arabinose or 2′-deoxyxylose were evaluated for their effect on the transformation of C3H mouse embryo cells by Moloney murine sarcoma virus (MSV) (Table 1) and the cytopathogenicity induced by HIV in human T4 lymphocyte MT4 cells (Table 1, Fig. 2).

[9] = system: T-lymphoblast Molt/4F; assay: Cytostatic effect against Molt/4F cells; format: cell-based; settings: Homo sapiens, read-out: Inhibitory dose-50 Molt/4F
Excerpt: The cultivation of Raji, Molt/4F, CEM, H9, HUT-78 and MT4 cells has been described in Balzarini, J, et al, Biochem. Biophys. Res. Commun.
The cytostatic effects of the compounds listed in Table 1 were examined against several human B-lymphoblast Raji, T-lymphoblast Molt/4F and T-lymphocyte CEM, H9 and MT4 cell lines (Table 2).

[10] = in vitro; format: cell-based; settings: human, mt4 cells
Protocol: (§4) For the determination of the cytopathic effect of HIV in human T-lymphocyte MT4 cells, MT4 cells, subcultured one day before the start of the experiment, were adjusted at 5 x 10⁵ cells/ml and infected with HIV (HTLV-IIIB) at 100 CCID₅₀/ml. Then, 100 µl of the infected cell suspension was brought into wells of a microtiter tray containing 100 µl of various dilutions of the test compounds. After 5 days incubation at 37°C, the number of viable cells was recorded microscopically in a hematocytometer by trypan blue exclusion.
Its anti-HIV activity is also higher than that found for its corresponding 2,6-diaminopurine derivative FddDAPR.

[11] = target: T1, beef intestine adenosine deaminase (ADA); assay: Substrate kinetics for deamination by adenosine deaminase; format: biochemical
Excerpt: All four ddDAPR analogues were examined for their susceptibility to deamination by beef intestine adenosine de aminase (ADA).

[12] = system: HIV (HTLV-IIIB); assay: HIV-induced cytopathogenicity in MT4 cells (viable cell count by trypan blue exclusion after 5 days); format: cell-based; settings: for EC50: Human immunodeficiency virus 1, IIIB; for HIV-induced cytopathogenicity in MT4 cells S.I.: selectivity index, ratio of 50% cytotoxic dose to 50% antivirally effective dose, 7200 min; for anti-HIV activity: HIV-induced cytopathogenicity in MT4 cells, result in words
Protocol: as §4, §3

[13] = system: H9; assay: Cytostatic effect against H9 cells; format: cell-based; settings: Homo sapiens, read-out: Inhibitory dose-50 H9
Protocol: as §1, §2

[14] = system: MT4; assay: Cytostatic effect against MT4 cells; format: cell-based; settings: Homo sapiens, read-out: Inhibitory dose-50 MT4; remark: listed apart in the source
[15] = system: HIV; assay: Inhibition of HIV antigen expression in infected H9 or HUT-78 cells (indirect immunofluorescence, laser flow cytofluorography); format: cell-based; settings: Human immunodeficiency virus 1, HuT78; H9 and HUT-78 cells; data not shown; read-out: concentration achieving 50% inhibition of HIV-induced antigen expression
Excerpt: The inhibitory effects of the test compounds on HIV antigen expression in infected H9 or HUT-78 cells were determined at day 8 and 14, respectively after infection, by indirect immunofluorescence and laser flow cytofluorography using a polyclonal antibody as probe, as previously described (Pauwels, R. et al, (1987)).
To confirm our anti-HIV data obtained in the MT4 cell model, we also evaluated the 3′-fluorinated ddDAPR derivatives in two other human T4 lymphocyte cell lines (H9 and HUT-78) for their inhibitory effect on viral antigen expression (data not shown). In these experiments, FddDAPR achieves 50% inhibition of HIV-induced antigen expression at a concentration range of 0.05 - 1.0 µM. This concentration range is lower than that required to inhibit HIV-induced cytopathogenicity in MT4 cells.

[16] = system: human B-lymphoblast Raji, T-lymphoblast Molt/4F and T-lymphocyte CEM, H9 and MT4 cell lines; assay: Cytostatic effects, summary over the human B- and T-cell lines; format: cell-based; settings: range over the cell lines, read-out: ID₅₀ for tumor cell proliferation
Protocol: as §1, §2

[17] = presence of DCF (10 µM preincubation)
[18] = C3H cells, 6-7 days at 37°C, read-out: MSV-induced C3H cell transformation ED₅₀
[19] = presence of 10 µM DCF (2′-deoxycoformycin), read-out: Effective dose-50 MSV-induced C3H cell transformation
[20] = without DCF (Table 3), read-out: Effective dose-50 MSV-induced C3H cell transformation
[21] = MT4, 120 h, MT4 cells, 5 days at 37°C, read-out: HIV-induced cytopathogenicity in MT4 cells ED₅₀
[22] = MT4, presence of 10 µM DCF (2′-deoxycoformycin), read-out: Effective dose-50 HIV-induced cytopathogenicity in MT4 cells
[23] = MT4, without DCF (Table 3), read-out: Effective dose-50 HIV-induced cytopathogenicity in MT4 cells
[24] = MT4, presence of DCF (10 µM preincubation)

Row | IC50 [3] [µM] | IC50 [6] [µM] | EC50 [8, 18] [µM] | EC50 [12, 21] [µM] | IC50 [13] [µM] | IC50 ([9]; Molt/4F) [µM] | Vmax [11] [µmole/mg proten/min] | Compound | Vmax [1] | IC50 [5] [µM] | CC50 [7] [µM] | MSV-induced C3H cell transformation S.I. [8] | CC50 at 120 h [10] [µM] | HIV-induced cytopathogenicity in MT4 cells S.I. [12] | also measured
1 |  |  |  |  |  |  |  | Nc1ncnc2c1ncn2[C@@H]1O[C@H](CO)[C@@H](O)[C@H]1O [Ado, adenosine] | 287^a µmole/mg proten/min |  |  |  |  |  | 
2 | 753 | 233 | 28 | 4.5 | 377 | 425 | 31 | Nc1nc(N)c2ncn([C@H]3C[C@H](F)[C@@H](CO)O3)c2n1 [FddDAPR, 3′-fluoro-2,6-diaminopurine 2′,3′-dideoxyriboside] |  | 337 | > 400 | > 15 | 360 | 80 | IC50 [4, 17]: 739 µM; IC50 ([4]; without DCF (Table 4)): 241 µM; EC50 [8, 19]: 87 µM; EC50 [8, 20]: 31 µM; IC50 [9, 17]: 865 µM; IC50 ([9]; without DCF (Table 4)): 353 µM; EC50 [15]: 0.05 to 1 µM; EC50 [12, 22]: 39 µM; EC50 [12, 23]: 4.5 µM; IC50 [14, 24]: 520 µM; IC50 ([14]; MT4, without DCF (Table 4)): 469 µM
3 | 903 | 142 | 72 | 7.6 | 531 | 380 |  | Nc1nc2c(ncn2[C@H]2CC[C@@H](CO)O2)c(=O)[nH]1 [ddGuo, 2′,3′-Dideoxyguanosine] |  | 942 | > 400 | > 5.5 | 486 | 64 | 
4 |  |  |  |  |  |  |  | Nc1ncnc2c1ncn2[C@H]1CC[C@@H](CO)O1 [ddAdo, 2′,3′-dideoxyadenosine] | 262^a µmole/mg proten/min |  |  |  |  |  | 
5 | 107 | 119 | 12 | 2.4 | 194 | 228 |  | Nc1nc2c(ncn2[C@H]2C[C@H](F)[C@@H](CO)O2)c(=O)[nH]1 [FddGuo, 3′-fluoro-2′,3′-dideoxyguanosine] |  | 197 | > 400 | > 23 | 231 | 96 | IC50 [16]: 190 to 228 µM
6 | > 1000 | > 1000 | > 400 | > 125 | > 1000 | > 1000 | 3.7 | Nc1nc(N)c2ncn([C@H]3C[C@@H](O)[C@@H](CO)O3)c2n1 [XylodDAPR] |  | > 1000 | > 400 |  | > 625 |  | anti-HIV activity [12]: devoid of any anti-HIV activity

Row | Compound | IC50 [3] [µM] | IC50 [6] [µM] | EC50 [8, 18] [µM] | EC50 [12, 21] [µM] | IC50 [13] [µM] | IC50 ([9]; Molt/4F) [µM] | Vmax [11] [µmole/mg proten/min] | Vmax [1] | IC50 [5] [µM] | CC50 [7] [µM] | MSV-induced C3H cell transformation S.I. [8] | CC50 at 120 h [10] [µM] | HIV-induced cytopathogenicity in MT4 cells S.I. [12] | also measured
7 | Nc1nc(N)c2ncn([C@H]3CC[C@@H](CO)O3)c2n1 [ddDAPR, 2,6-Diamino-9-(2,3-dideoxy-β-D-glycero-pentofuranosyl)purine] | 324 | 125 | 19 | 3.8 | 466 |  |  | 8.2^a µmole/mg proten/min | 644 | ≥ 200 | ≧ 11 | 404 | 106 | EC50 [2]: 2.5 to 3.6 µM; IC50 [4, 17]: > 1000 µM; IC50 ([4]; without DCF (Table 4)): 128 µM; EC50 [8, 19]: 84 µM; EC50 [8, 20]: 23 µM; Km [1]: 29 µM; IC50 [9, 17]: > 1000 µM; IC50 ([9]; without DCF (Table 4)): 220 µM; Vmax relative to that observed for Ado [11]: 3%; EC50 [12, 22]: 13 µM; EC50 [12, 23]: 3.8 µM; IC50 [14, 24]: > 1000 µM; IC50 ([14]; MT4, without DCF (Table 4)): > 1000 µM
8 | Nc1nc(N)c2ncn([C@@H]3O[C@H](CO)[C@@H](O)[C@@H]3O)c2n1 [araDAPR, 9-β-D-arabinofuranosyl 2,6-diaminopurine] | > 1000 | > 1000 | > 400 | > 125 | > 1000 | > 1000 | 5.9 |  | > 1000 | > 400 |  | > 625 |  | Km [11]: 83 µM; anti-HIV activity [12]: devoid of any anti-HIV activity
